Columns and labels:
MDA-MB-435 = test: panel of 60 human tumor cell lines, growth inhibition (Melanoma); conditions: MDA-MB-435; Log10 Concentration −8.0
SW-620 = test: panel of 60 human tumor cell lines, growth inhibition (Colon Cancer); conditions: SW-620
BT-549 = test: panel of 60 human tumor cell lines, growth inhibition (Breast Cancer)
786-0 = test: panel of 60 human tumor cell lines, growth inhibition (Renal Cancer); conditions: 786-0
NCI/ADR-RES = test: panel of 60 human tumor cell lines, growth inhibition (Ovarian Cancer)
OVCAR-8 = test: as above; conditions: OVCAR-8
SF-268 = test: panel of 60 human tumor cell lines, growth inhibition (CNS Cancer); conditions: SF-268
HCT-116 = test: panel of 60 human tumor cell lines, growth inhibition (Colon Cancer); conditions: HCT-116
SF-539 = test: panel of 60 human tumor cell lines, growth inhibition (CNS Cancer); conditions: SF-539
IGROV1 = test: panel of 60 human tumor cell lines, growth inhibition (Ovarian Cancer); conditions: IGROVI
[1] = 81-549, Log10 Concentration −4.0
[2] = 81-549, Log10 Concentration −5.0
[3] = 81-549, Log10 Concentration −6.0
[4] = 81-549, Log10 Concentration −7.0
[5] = 81-549, Log10 Concentration −8.0

In the case of C=C1C(=O)O[C@H]2[C@H]1CC/C(COC(=O)N1CCN(C)CC1)=C\CC[C@@]1(C)O[C@@H]21 [JVM 2-44], the “Percent Growth” value (MDA-MB-435) is reported as 102%, the GI50 (SW-620) is reported as 3.67 µM and the TGI (SW-620) is reported as 1.49E−5. The “Mean Optical Densities” value (SW-620; Log10 Concentration −4.0) was 0.080, the “Percent Growth” value (SW-620; Log10 Concentration −4.0) was −78% and the “Mean Optical Densities” value (SW-620; Log10 Concentration −5.0) was 0.753. For the same compound, the “Percent Growth” value (SW-620; Log10 Concentration −5.0) was 16%, the “Mean Optical Densities” value (SW-620; Log10 Concentration −6.0) was 2.599 and the “Percent Growth” value (SW-620; Log10 Concentration −6.0) was 94%. The “Mean Optical Densities” value (SW-620; Log10 Concentration −7.0) was 2.683, the “Percent Growth” value (SW-620; Log10 Concentration −7.0) was 97% and the “Mean Optical Densities” value (SW-620; Log10 Concentration −8.0) was 2.698. The “Percent Growth” value (SW-620; Log10 Concentration −8.0) was 98%, the TGI (BT-549; 81-549) was 1.81E−5 and the “Mean Optical Densities” value (BT-549; [1]) was 0.180. For the same compound, the “Percent Growth” value (BT-549; [1]) was −86%, the “Mean Optical Densities” value (BT-549; [2]) was 1.522 and the “Percent Growth” value (BT-549; [2]) was 30%. For the same compound, the “Mean Optical Densities” value (BT-549; [3]) was 1.985, the “Percent Growth” value (BT-549; [3]) was 84% and the “Mean Optical Densities” value (BT-549; [4]) was 1.951. For the same compound, the “Percent Growth” value (BT-549; [4]) was 80%, the “Mean Optical Densities” value (BT-549; [5]) was 2.028 and the “Percent Growth” value (BT-549; [5]) was 89%. For the same compound, the GI50 (786-0) was 6.53 µM, the TGI (786-0) was 2.42E−5 and the “Mean Optical Densities” value (786-0; Log10 Concentration −4.0) was 0.194. For the same compound, the “Percent Growth” value (786-0; Log10 Concentration −4.0) was −64%, the “Mean Optical Densities” value (786-0; Log10 Concentration −5.0) was 1.194 and the “Percent Growth” value (786-0; Log10 Concentration −5.0) was 40%. The “Mean Optical Densities” value (786-0; Log10 Concentration −6.0) was 2.074, the “Percent Growth” value (786-0; Log10 Concentration −6.0) was 94% and the “Mean Optical Densities” value (786-0; Log10 Concentration −7.0) was 2.022. For the same compound, the “Percent Growth” value (786-0; Log10 Concentration −7.0) was 91%, the “Mean Optical Densities” value (786-0; Log10 Concentration −8.0) was 2.113 and the “Percent Growth” value (786-0; Log10 Concentration −8.0) was 96%. For the same compound, the GI50 (NCI/ADR-RES) was 24.6 µM, the TGI (NCI/ADR-RES) was over 1.00E−4 and the “Mean Optical Densities” value (NCI/ADR-RES; Log10 Concentration −4.0) was 0.606. For the same compound, the “Percent Growth” value (NCI/ADR-RES; Log10 Concentration −4.0) was 1%, the “Mean Optical Densities” value (NCI/ADR-RES; Log10 Concentration −5.0) was 1.819 and the “Percent Growth” value (NCI/ADR-RES; Log10 Concentration −5.0) was 82%. For the same compound, the “Mean Optical Densities” value (NCI/ADR-RES; Log10 Concentration −6.0) was 2.094, the “Percent Growth” value (NCI/ADR-RES; Log10 Concentration −6.0) was 100% and the “Mean Optical Densities” value (NCI/ADR-RES; Log10 Concentration −7.0) was 2.049. The “Percent Growth” value (NCI/ADR-RES; Log10 Concentration −7.0) was 97%, the “Mean Optical Densities” value (NCI/ADR-RES; Log10 Concentration −8.0) was 2.060 and the “Percent Growth” value (NCI/ADR-RES; Log10 Concentration −8.0) was 98%. For the same compound, the GI50 (OVCAR-8) was 11.1 µM, the TGI (OVCAR-8) was 3.06E−5 and the “Mean Optical Densities” value (OVCAR-8; Log10 Concentration −4.0) was 0.184. For the same compound, the “Percent Growth” value (OVCAR-8; Log10 Concentration −4.0) was −61%, the “Mean Optical Densities” value (OVCAR-8; Log10 Concentration −5.0) was 1.385 and the “Percent Growth” value (OVCAR-8; Log10 Concentration −5.0) was 59%. For the same compound, the “Mean Optical Densities” value (OVCAR-8; Log10 Concentration −6.0) was 1.997, the “Percent Growth” value (OVCAR-8; Log10 Concentration −6.0) was 98% and the “Mean Optical Densities” value (OVCAR-8; Log10 Concentration −7.0) was 2.055. The “Percent Growth” value (OVCAR-8; Log10 Concentration −7.0) was 102%, the “Mean Optical Densities” value (OVCAR-8; Log10 Concentration −8.0) was 2.052 and the “Percent Growth” value (OVCAR-8; Log10 Concentration −8.0) was 101%. The GI50 (SF-268) was 13.5 µM, the TGI (SF-268) was 3.19E−5 and the “Mean Optical Densities” value (SF-268; Log10 Concentration −4.0) was 0.188. For the same compound, the “Percent Growth” value (SF-268; Log10 Concentration −4.0) was −66%, the “Mean Optical Densities” value (SF-268; Log10 Concentration −5.0) was 1.432 and the “Percent Growth” value (SF-268; Log10 Concentration −5.0) was 67%. For the same compound, the “Mean Optical Densities” value (SF-268; Log10 Concentration −6.0) was 1.625, the “Percent Growth” value (SF-268; Log10 Concentration −6.0) was 97% and the “Mean Optical Densities” value (SF-268; Log10 Concentration −7.0) was 1.839. The “Percent Growth” value (SF-268; Log10 Concentration −7.0) was 9B, the “Mean Optical Densities” value (SF-268; Log10 Concentration −8.0) was 1.843 and the “Percent Growth” value (SF-268; Log10 Concentration −8.0) was 99%. For the same compound, the GI50 (HCT-116) was 3.79 µM, the TGI (HCT-116) was 1.43E−5 and the “Mean Optical Densities” value (HCT-116; Log10 Concentration −4.0) was 0.061. For the same compound, the “Percent Growth” value (HCT-116; Log10 Concentration −4.0) was −80%, the “Mean Optical Densities” value (HCT-116; Log10 Concentration −5.0) was 0.598 and the “Percent Growth” value (HCT-116; Log10 Concentration −5.0) was 15%. For the same compound, the “Mean Optical Densities” value (HCT-116; Log10 Concentration −6.0) was 2.231, the “Percent Growth” value (HCT-116; Log10 Concentration −6.0) was 98% and the “Mean Optical Densities” value (HCT-116; Log10 Concentration −7.0) was 2.250. For the same compound, the “Percent Growth” value (HCT-116; Log10 Concentration −7.0) was 99%, the “Mean Optical Densities” value (HCT-116; Log10 Concentration −8.0) was 2.298 and the “Percent Growth” value (HCT-116; Log10 Concentration −8.0) was 102%. For the same compound, the GI50 (SF-539) was 5.01 µM, the TGI (SF-539) was 1.99E−5 and the “Mean Optical Densities” value (SF-539; Log10 Concentration −4.0) was 0.121. The “Percent Growth” value (SF-539; Log10 Concentration −4.0) was −79%, the “Mean Optical Densities” value (SF-539; Log10 Concentration −5.0) was 1.049 and the “Percent Growth” value (SF-539; Log10 Concentration −5.0) was 34%. For the same compound, the “Mean Optical Densities” value (SF-539; Log10 Concentration −6.0) was 1.761, the “Percent Growth” value (SF-539; Log10 Concentration −6.0) was 87% and the “Mean Optical Densities” value (SF-539; Log10 Concentration −7.0) was 1.799. For the same compound, the “Percent Growth” value (SF-539; Log10 Concentration −7.0) was 89%, the “Mean Optical Densities” value (SF-539; Log10 Concentration −8.0) was 1.915 and the “Percent Growth” value (SF-539; Log10 Concentration −8.0) was 97%. The GI50 (IGROV1) was 11.1 µM, the TGI (IGROV1) was 2.99E−5 and the “Mean Optical Densities” value (IGROV1; Log10 Concentration −4.0) was 0.249. For the same compound, the “Percent Growth” value (IGROV1; Log10 Concentration −4.0) was −65%, the “Mean Optical Densities” value (IGROV1; Log10 Concentration −5.0) was 1.363 and the “Percent Growth” value (IGROV1; Log10 Concentration −5.0) was 59%. The “Mean Optical Densities” value (IGROV1; Log10 Concentration −6.0) was 1.902, the “Percent Growth” value (IGROV1; Log10 Concentration −6.0) was 107% and the “Mean Optical Densities” value (IGROV1; Log10 Concentration −7.0) was 1.888. For the same compound, the “Percent Growth” value (IGROV1; Log10 Concentration −7.0) was 106%, the “Mean Optical Densities” value (IGROV1; Log10 Concentration −8.0) was 1.866 and the “Percent Growth” value (IGROV1; Log10 Concentration −8.0) was 104%.

From US9469650B2, “Melampomagnolide B derivatives” (BOARD OF TRUSTEES OF THE UNIVERSITY OF ARKANSAS, priority 2013, dated 2016)
